# Experimental data from paper PMC10648349, “Aromatic Diboronic Acids as Effective KPC/AmpC Inhibitors” (Molecules, 2023).
# Where two headings read alike, the source gives them in different places.
# Key:
# [1] = tested on: K. pneumoniae 81 KPC-3(+); assay: MIC of tested agent alone, microdilution; type: cell-based
# Experimental: (§1) To examine the ability of tested agents to inhibit various carbapenemases and AmpC-enzymes, their synergy with antibiotics against β-lactamase-producing strains was assessed by checkerboard microdilution assay, with slight modification. Checkerboards were prepared in microtiter plates, with seven two-fold dilutions of β-lactams (1–64 mg/L) in the rows and three two-fold dilutions of tested agents and PBA (4–16 mg/L) in the columns. Tested agents’ concentrations were limited to the concentrations at which the newest commercially available BLIs (vaborbactam, relebactam, and avibactam) are used in susceptibility testing. Plates were inoculated and incubated as in the MIC microdilution assay. Parallel, MICs of tested agents and PBA alone were determined by the microdilution assay. Following the incubation, antibiotic MICs in the presence of each agent’s concentration were determined. Moreover, for the first well without growth found in each checkerboard row and column along the growth/non-growth interface, the fractional inhibitory concentration index (FICI) was calculated using the formula below:FICI = [(MIC of antibiotic in combination)/(MIC of antibiotic alone)] + [(MIC of the tested agent in combination)/(MIC of tested agent alone)].
# [2] = tested on: K. pneumoniae ATCC BAA-1705 KPC-2(+); assay: MIC of tested agent alone, microdilution; type: cell-based
# Experimental: as §1
# E. coli 77 CMY-2(+) = assay: MIC of tested agent alone, microdilution; type: cell-based
# Experimental: as §1
# [3] = tested on: P. aeruginosa MUW 700 AmpC(+); assay: MIC of tested agent alone, microdilution; type: cell-based
# Experimental: as §1
# [4] = tested on: K. pneumoniae 83 KPC-3(+), CTX-M-3(+); assay: MIC of tested agent alone, microdilution; type: cell-based
# Experimental: as §1
# E. coli 76 KPC-2(+) = assay: MIC of tested agent alone, microdilution; type: cell-based
# Experimental: as §1
# C. krusei ATCC 6258 = assay: antifungal activity (disc-diffusion, MIC, MFC); type: cell-based, Candida krusei; conditions: Pichia kudriavzevii, ATCC6258; for MIC: fluconazole by Etest
# Outline: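 EUCAST/CLSI methods: disc diffusion at 0.4 mg compound/disc, broth MIC, then MBC (bacteria) or MFC (yeast). DMSO vehicle.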
# [5] = tested on: K. pneumoniae 83 KPC-3-positive, CTX-M-3-positive; assay: checkerboard microdilution, antibiotic plus tested agent; type: cell-based, Klebsiella pneumoniae
# Outline: (§2)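 Read-out is the antibiotic MIC with agent present, plus FICI = combined/alone MIC ratios summed for both partners. Meropenem pairs served for carbapenemase strains and ceftazidime pairs for the AmpC strain. Agent or PBA was tested at 4–16 mg/L.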
# [6] = tested on: K. pneumoniae 81 KPC-3-positive; assay: as above; type: cell-based, Klebsiella pneumoniae
# Outline: as §2
# [7] = tested on: K. pneumoniae ATCC BAA-1705 KPC-2-positive; assay: as above; type: cell-based, Klebsiella pneumoniae
# Outline: as §2
# [8] = tested on: E. coli 76 KPC-2-positive; assay: as above; type: cell-based, Escherichia coli
# Outline: as §2
# KPC producers = assay: microdilution with carbapenems; type: cell-based; conditions: agent 16 mg/L
# Experimental: as §1
# (§3) For calculations, all off-scale MICs were converted to the next-highest doubling concentration. Subsequently, both the average and the lowest FICI were interpreted. The interpretation was as follows: FICI ≤ 0.5, synergy; 0.5 < FICI ≤ 4, indifference and FICI > 4, antagonism. Primarily, examined combinations consisted of meropenem (Pol-Aura, Morag, Poland) plus tested agents against carbapenemases-producing strains and ceftazidime (Pol-Aura, Morag, Poland) plus tested agents against AmpC-producing strains. For agents that reduced meropenem MIC at least 4-fold for at least two tested strains, similar assays were performed with imipenem (Pol-Aura, Morag, Poland) and ertapenem (Pol-Aura, Morag, Poland).
# [9] = tested on: P. aeruginosa MUW 700 cAmpC-positive; assay: checkerboard microdilution, antibiotic plus tested agent; type: cell-based, Pseudomonas aeruginosa
# Experimental: as §1, §3
# [10] = Klebsiella pneumoniae; read-out: MIC of agent alone
# [11] = Klebsiella pneumoniae, ATCCBAA1705; read-out: MIC of agent alone
# [12] = Escherichia coli; read-out: MIC of agent alone
# [13] = Pseudomonas aeruginosa; read-out: MIC of agent alone
# [14] = Klebsiella pneumoniae, read-out: MIC of agent alone
# [15] = Escherichia coli, read-out: MIC of agent alone
smiles,measurement,setting,value
OB(O)c1ccc(C(F)(F)F)cc1B(O)O [3e],MIC,[1]; [10],> 400 µg/mL
same,MIC,[2]; [11],> 400 µg/mL
same,MIC,E. coli 77 CMY-2(+); [12],> 400 µg/mL
same,MIC,[3]; [13],> 400 µg/mL
same,MIC,[4]; [10],> 400 µg/mL
same,MIC,E. coli 76 KPC-2(+); [12],> 400 µg/mL
same,zone of inhibition at 0.4 mg/disc,"C. krusei ATCC 6258; 0.4 mg per disc, 9 mm disc (fluconazole 0.025 mg, 6 mm disc), - no zone, read-out: Diameter of inhibition zone",23 mm
same,MIC,C. krusei ATCC 6258,25 µg/mL
OB(O)c1ccc(F)cc1B(O)O [3c],MIC,[1]; [10],> 400 µg/mL
same,MIC,[2]; [11],> 400 µg/mL
same,MIC,E. coli 77 CMY-2(+); [12],> 400 µg/mL
same,MIC,[3]; [13],> 400 µg/mL
same,MIC,[4]; [10],> 400 µg/mL
same,MIC,E. coli 76 KPC-2(+); [12],> 400 µg/mL
same,Average FICI with ERT,[5],0.43
same,Average FICI with IMI,[5],0.35
same,Average FICI with MEM,[5],0.22
same,The lowest FICI with ERT,[5],0.27
same,The lowest FICI with IMI,[5],0.26
same,The lowest FICI with MEM,[5],0.15
same,Average FICI with ERT,[6],0.22
same,Average FICI with IMI,[6],0.18
same,Average FICI with MEM,[6],0.18
same,The lowest FICI with ERT,[6],0.15
same,The lowest FICI with IMI,[6],0.14
same,The lowest FICI with MEM,[6],0.14
same,Average FICI with ERT,[7],0.43
same,Average FICI with IMI,[7],0.35
same,Average FICI with MEM,[7],0.51
same,The lowest FICI with ERT,[7],0.27
same,The lowest FICI with IMI,[7],0.26
same,The lowest FICI with MEM,[7],0.51
same,MIC,C. krusei ATCC 6258,200 µg/mL
same,Average FICI with ERT,[8],0.43
same,Average FICI with IMI,[8],0.22
same,Average FICI with MEM,[8],0.43
same,The lowest FICI with ERT,[8],0.27
same,The lowest FICI with IMI,[8],0.15
same,The lowest FICI with MEM,[8],0.27
OB(O)c1cc(C(F)(F)F)cc(B(O)O)c1F [2e],MIC,[1]; [10],> 400 µg/mL
same,MIC,[2]; [11],> 400 µg/mL
same,MIC,E. coli 77 CMY-2(+); [12],> 400 µg/mL
same,MIC,[3]; [13],> 400 µg/mL
same,MIC,[4]; [10],> 400 µg/mL
same,MIC,E. coli 76 KPC-2(+); [12],> 400 µg/mL
same,MIC,C. krusei ATCC 6258,> 400 µg/mL
"OB(O)c1ccccc1 [PBA, phenylboronic acid, reference compound]","carbapenems' MIC reduction, up to",KPC producers; KPC-2 producers,up to 8 fold
same,"carbapenems' MIC reduction, up to",KPC producers; KPC-3 producers,up to 4 fold
same,MIC,[1]; [14],> 400 µg/mL
same,MIC,"[2]; Klebsiella pneumoniae, ATCCBAA1705, read-out: MIC of agent alone",> 400 µg/mL
same,MIC,E. coli 77 CMY-2(+); [15],> 400 µg/mL
same,MIC,"[3]; Pseudomonas aeruginosa, read-out: MIC of agent alone",> 400 µg/mL
same,MIC,[4]; [14],> 400 µg/mL
same,MIC,E. coli 76 KPC-2(+); [15],> 400 µg/mL
same,Average FICI with ERT,[5],0.51
same,Average FICI with IMI,[5],0.68
same,Average FICI with MEM,[5],0.35
same,The lowest FICI with ERT,[5],0.51
same,The lowest FICI with IMI,[5],0.51
same,The lowest FICI with MEM,[5],0.26
same,Average FICI with ERT,[6],0.51
same,Average FICI with IMI,[6],0.43
same,Average FICI with MEM,[6],0.51
same,The lowest FICI with ERT,[6],0.51
same,The lowest FICI with IMI,[6],0.27
same,The lowest FICI with MEM,[6],0.51
same,Average FICI with ERT,[7],0.85
same,Average FICI with IMI,[7],0.43
same,Average FICI with MEM,[7],0.43
same,The lowest FICI with ERT,[7],0.52
same,The lowest FICI with IMI,[7],0.27
same,The lowest FICI with MEM,[7],0.27
same,Average FICI with ceftazidime,[9],0.10
same,Interpretation of the average FICI with ceftazidime,[9],"S (FICI ≤ 0.5, synergy)"
same,Interpretation of the lowest FICI with ceftazidime,[9],"S (FICI ≤ 0.5, synergy)"
same,The lowest FICI with ceftazidime,[9],0.07
same,Average FICI with ERT,[8],0.35
same,Average FICI with IMI,[8],0.22
same,Average FICI with MEM,[8],0.26
same,The lowest FICI with ERT,[8],0.26
same,The lowest FICI with IMI,[8],0.15
same,The lowest FICI with MEM,[8],0.26
"OB(O)c1ccc(B(O)O)c(B(O)O)c1 [4b, benzene-1,2,4-triboronic]",MIC,[1]; [10],> 400 µg/mL
same,MIC,[2]; [11],> 400 µg/mL
same,MIC,E. coli 77 CMY-2(+); [12],> 400 µg/mL
same,MIC,[3]; [13],> 400 µg/mL
same,MIC,[4]; [10],> 400 µg/mL
same,MIC,E. coli 76 KPC-2(+); [12],> 400 µg/mL
same,Average FICI with ceftazidime,[9],0.30
same,Interpretation of the average FICI with ceftazidime,[9],"S (FICI ≤ 0.5, synergy)"
same,Interpretation of the lowest FICI with ceftazidime,[9],"S (FICI ≤ 0.5, synergy)"
same,The lowest FICI with ceftazidime,[9],0.15
same,MIC,C. krusei ATCC 6258,> 400 µg/mL
